From publication PMC10899177, “Bicarbonate signalling via G protein-coupled receptor regulates ischaemia-reperfusion injury” (Nature Communications, 2024) come the findings set out here.

Assay [1] deals with T1, GPR30 (Danio rerio, UniProt B3G515).
T1 construct: gene gper1

Assay [2] concerns the target T2, GPR30 (Rattus norvegicus, UniProt O08878).
T2 construct: gene Gper1

The target in assay [3] is T3, GPR30 (Homo sapiens, UniProt Q99527).
T3 construct: gene GPER1; hGPR30-HA (C-terminal HA tag), plasma membrane fraction of HEK293 cells
Briefly: scintillation proximity assay with […]C-bicarbonate on membranes; the EC50 is from inositol phosphate accumulation in HEK293 cells. It is filed as cell-based. (In general: SPA uses beads or plates that emit light when radiolabelled molecules are held near them.)

Assay [4] addresses T4, GPR30 (Mus musculus, UniProt Q8BMP4).
T4 construct: gene Gper1; mGPR30 stably expressed in MCF-7 cells
T4 sequence (Q8BMP4 1-375): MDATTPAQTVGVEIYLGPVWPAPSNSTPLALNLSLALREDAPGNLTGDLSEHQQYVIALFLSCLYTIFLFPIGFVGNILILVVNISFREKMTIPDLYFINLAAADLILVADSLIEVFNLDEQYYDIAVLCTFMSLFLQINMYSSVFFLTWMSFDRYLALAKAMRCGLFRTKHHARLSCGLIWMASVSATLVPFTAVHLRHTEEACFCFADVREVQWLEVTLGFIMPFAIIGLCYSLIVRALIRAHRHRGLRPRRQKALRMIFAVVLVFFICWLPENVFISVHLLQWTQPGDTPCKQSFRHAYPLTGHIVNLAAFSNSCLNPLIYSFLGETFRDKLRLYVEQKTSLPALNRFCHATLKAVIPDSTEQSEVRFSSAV
Nature of the assay: inositol phosphate accumulation in MCF-mGPR30 cells; calcium responses lost in Gpr30-null mural cells. In kind it is cell-based.

By EC50 is commonly meant the concentration giving half of the maximal effect.

T1 sequence (B3G515 whole entry): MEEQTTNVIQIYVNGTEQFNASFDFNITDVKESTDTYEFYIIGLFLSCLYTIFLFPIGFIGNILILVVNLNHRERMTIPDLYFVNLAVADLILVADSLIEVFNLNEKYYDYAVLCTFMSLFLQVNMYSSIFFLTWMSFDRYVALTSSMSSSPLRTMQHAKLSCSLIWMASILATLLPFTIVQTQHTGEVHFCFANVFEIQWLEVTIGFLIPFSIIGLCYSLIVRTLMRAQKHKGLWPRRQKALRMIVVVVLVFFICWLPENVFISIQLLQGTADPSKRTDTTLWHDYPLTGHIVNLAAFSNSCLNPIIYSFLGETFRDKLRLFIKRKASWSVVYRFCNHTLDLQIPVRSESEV
T2 sequence (O08878 whole entry): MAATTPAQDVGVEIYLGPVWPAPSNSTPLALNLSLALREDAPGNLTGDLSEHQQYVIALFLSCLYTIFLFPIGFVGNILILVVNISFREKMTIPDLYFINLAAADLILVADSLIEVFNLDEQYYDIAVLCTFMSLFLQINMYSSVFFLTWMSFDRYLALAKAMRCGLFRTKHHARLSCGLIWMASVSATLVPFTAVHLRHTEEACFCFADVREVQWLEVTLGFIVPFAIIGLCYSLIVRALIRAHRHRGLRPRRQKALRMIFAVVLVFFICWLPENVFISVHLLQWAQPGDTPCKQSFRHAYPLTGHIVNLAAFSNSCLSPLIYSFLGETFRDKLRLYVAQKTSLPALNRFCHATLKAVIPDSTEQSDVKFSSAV
T3 sequence (Q99527 whole entry): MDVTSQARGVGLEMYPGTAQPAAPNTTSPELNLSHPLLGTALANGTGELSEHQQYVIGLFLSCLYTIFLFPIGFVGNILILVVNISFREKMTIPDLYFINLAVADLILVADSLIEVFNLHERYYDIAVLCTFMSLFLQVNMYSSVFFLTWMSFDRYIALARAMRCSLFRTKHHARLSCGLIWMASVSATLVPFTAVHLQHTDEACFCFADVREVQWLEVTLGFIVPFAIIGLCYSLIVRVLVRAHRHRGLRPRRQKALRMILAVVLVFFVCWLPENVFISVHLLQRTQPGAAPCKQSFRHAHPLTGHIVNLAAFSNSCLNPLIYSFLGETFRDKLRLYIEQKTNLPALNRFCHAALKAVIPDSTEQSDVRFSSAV

For the compound `O=C(O)O` [bicarbonate], the “cell-based activation assay of expressed receptor” value in assay [1] is on record as “Activation of GPR30 by bicarbonate ions was conserved among various species, including rats”; in assay [2], “Activation of GPR30 by bicarbonate ions was conserved among various species, including rats”. The results for the EC50 in assay [3] and in assay [4] were 11.4 mM and 12.2 mM, respectively.
